What follows are compounds tested against human GPR17 short isoform (Homo sapiens, UniProt Q13304) (assay: GPR17 cAMP assay (TR-FRET cAMP quantification, antagonist mode)). Details: CHO-K1 cells stably expressing human GPR17 short isoform; EC80 of agonist MDL29,951; forskolin 15µM; IBMX 0.5mM; 30 minutes at room temperature; read-out: hGPR17 cAMP IC50.
Type: cell-based
Description: GPR17 cAMP Assay Protocol:
CHO-K1 cells stably expressing vector containing untagged human GPR17 short isoform (Roche) were cultured at 37°C / 5% CO2 in DMEM (Dulbecco's Modified Eagle Medium):F-12 (1:1) supplemented with 10% foetal bovine serum and 400 µg/ml Geneticin.
Changes in intracellular cyclic adenosine monophosphate (cAMP) levels were quantified using the Nano-TRF Detection Assay kit (Roche Diagnostics, Cat. No. 05214386001). This assay allows for direct cAMP quantification in a homogeneous solution. cAMP is detected based on time-resolved fluorescence energy transfer (TR-FRET) and competitive binding of ruthenylated cAMP and endogenous cAMP to an anti-cAMP monoclonal antibody labeled with AlexaFluor-700. The Ruthenium complex serves as the FRET donor and transfers energy to AlexaFluor-700. The FRET signal is inversely proportional to the cAMP concentration.
CHO-GPR17S cells were detached with Accutase and resuspended in assay buffer consisting of Hank's Balanced Salt Solution (HBSS), 10mM HEPES (4-(2-hydroxyethyl) piperazine-1-ethanesulfonic acid solution) and 0.1% bovine serum albumin (pH 7.4). The cells were seeded in black 384-well plates (Corning) at a density of 10'000 cells / 20µl assay buffer until the addition of compounds.
Test antagonist compounds were serially diluted in dimethyl sulfoxide (DMSO) and spotted in 384-well plates. The compounds were then diluted in HBSS buffer supplemented with an EC80 concentration of MDL29,951 (3-(2-Carboxy-4,6-dichloroindol-3-yl)propionic acid) (GPR17 agonist) plus 3-Isobutyl-1-methylxanthine (IBMX) (0.5mM final concentration) and added to the cells at room temperature. Forskolin (15µM final concentration) was added 5 minutes after the test compounds and the cells were incubated at room temperature for 30 minutes. The assay was stopped by adding cAMP detection mix (containing detergents for cell lysis) for 90 minutes at room temperature.
Cellular cAMP was measured using a Paradigm reader (Molecular Devices). The raw data was used to calculate the FRET signal based on the assay's P-factor as per cAMP kit instructions. The data was normalized to the maximal activity of a reference antagonist and dose response curves were fitted to the percent activity of the test compounds using a sigmoidal dose response model (Genedata Screener).
Results in the hGPR17 cAMP assay are provided for compounds of formula I in Table 1 Table 1: […]

Sequence of human GPR17 short isoform (Q13304 29-367): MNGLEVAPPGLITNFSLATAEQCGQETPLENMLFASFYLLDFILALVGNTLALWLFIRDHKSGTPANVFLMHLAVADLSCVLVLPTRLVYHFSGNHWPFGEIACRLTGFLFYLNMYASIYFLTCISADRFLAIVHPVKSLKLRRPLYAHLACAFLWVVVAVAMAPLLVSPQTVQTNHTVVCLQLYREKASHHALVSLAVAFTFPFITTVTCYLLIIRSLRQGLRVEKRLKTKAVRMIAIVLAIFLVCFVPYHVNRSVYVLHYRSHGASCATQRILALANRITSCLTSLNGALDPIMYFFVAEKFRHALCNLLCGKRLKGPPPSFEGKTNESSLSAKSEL

IC50 [nM] | SMILES
51 | COc1nc(NS(=O)(=O)c2c[nH]c3c(-c4cnccn4)c(C)ccc23)nc(OC)c1OCC(F)F [Example 58, N-[5-(2,2-difluoroethoxy)-4,6-dimethoxy-pyrimidin-2-yl]-6-methyl-7-pyrazin-2-yl-1H-indole-3-sulfonamide]
68 | COc1nc(NS(=O)(=O)c2c[nH]c3c(-c4cnccn4)c(C)ccc23)nc(OC)c1OC(F)F [Example 59, N-[5-(difluoromethoxy)-4,6-dimethoxy-pyrimidin-2-yl]-6-methyl-7-pyrazin-2-yl-1H-indole-3-sulfonamide]
121 | COc1nc(NS(=O)(=O)c2c[nH]c3c(-c4ncccn4)c(Cl)c(F)cc23)nc(OC)c1OCC(F)F [Example 60, 6-chloro-N-[5-(2,2-difluoroethoxy)-4,6-dimethoxy-pyrimidin-2-yl]-5-fluoro-7-(2-pyrimidyl)-1H-indole-3-sulfonamide]
23 | COc1nc(NS(=O)(=O)c2c[nH]c3c(-c4ccn(C)n4)c(Cl)ccc23)nc(OC)c1OCC(F)F [Example 61, 6-chloro-N-[5-(2,2-difluoroethoxy)-4,6-dimethoxy-pyrimidin-2-yl]-7-(1-methylpyrazol-3-yl)-1H-indole-3-sulfonamide]
37 | COc1nc(NS(=O)(=O)c2c[nH]c3c(-c4ccnc(C)n4)c(Cl)ccc23)nc(OC)c1OCC(F)F [Example 62, 6-chloro-N-[5-(2,2-difluoroethoxy)-4,6-dimethoxy-pyrimidin-2-yl]-7-(2-methylpyrimidin-4-yl)-1H-indole-3-sulfonamide]
45 | COc1nc(NS(=O)(=O)c2c[nH]c3c(-c4ccc(C)nn4)c(Cl)ccc23)nc(OC)c1OCC(F)F [Example 63, 6-chloro-N-[5-(2,2-difluoroethoxy)-4,6-dimethoxy-pyrimidin-2-yl]-7-(6-methylpyridazin-3-yl)-1H-indole-3-sulfonamidemide]
35 | COc1nc(NS(=O)(=O)c2c[nH]c3c(-c4nccnc4Cl)c(Cl)ccc23)nc(OC)c1OC(F)F [Example 64, 6-chloro-7-(3-chloropyrazin-2-yl)-N-[5-(difluoromethoxy)-4,6-dimethoxy-pyrimidin-2-yl]-1H-indole-3-sulfonamide]
39 | COc1nc(NS(=O)(=O)c2c[nH]c3c(-c4nccnc4Cl)c(Cl)ccc23)nc(OC)c1CC(F)F [Example 65, 6-chloro-7-(3-chloropyrazin-2-yl)-N-[5-(2,2-difluoroethyl)-4,6-dimethoxy-pyrimidin-2-yl]-1H-indole-3-sulfonamide]
55 | COc1nc(NS(=O)(=O)c2c[nH]c3c(-c4nccnc4Cl)c(Cl)ccc23)nc(OC)c1OCC(F)F [Example 66, 6-chloro-7-(3-chloropyrazin-2-yl)-N-[5-(2,2-difluoroethoxy)-4,6-dimethoxy-pyrimidin-2-yl]-1H-indole-3-sulfonamide]
24 | COc1nc(NS(=O)(=O)c2c[nH]c3c(-c4ccn(C)n4)c(Cl)ccc23)nc(OC)c1OC(F)F [Example 67, 6-chloro-N-[5-(difluoromethoxy)-4,6-dimethoxy-pyrimidin-2-yl]-7-(1-methylpyrazol-3-yl)-1H-indole-3-sulfonamide]
18 | COc1nc(NS(=O)(=O)c2c[nH]c3c(-c4ccn(C)n4)c(Cl)ccc23)nc(OC)c1OCCF [Example 68, 6-chloro-N-[5-(2-fluoroethoxy)-4,6-dimethoxy-pyrimidin-2-yl]-7-(1-methylpyrazol-3-yl)-1H-indole-3-sulfonamide]
56 | COc1nc(NS(=O)(=O)c2c[nH]c3c(-c4cnn(C)c4)c(Br)ccc23)nc(OC)c1OCC(F)F [Example 69, 6-bromo-N-[5-(2,2-difluoroethoxy)-4,6-dimethoxy-pyrimidin-2-yl]-7-(1-methylpyrazol-4-yl)-1H-indole-3-sulfonamide]
102 | COc1nc(NS(=O)(=O)c2c[nH]c3c(-c4ccccc4)c(Cl)ccc23)nc(OC)c1OCC(F)F [Example 70, 6-chloro-N-[5-(2,2-difluoroethoxy)-4,6-dimethoxy-pyrimidin-2-yl]-7-phenyl-1H-indole-3-sulfonamide]
99 | COc1nc(NS(=O)(=O)c2c[nH]c3c(-c4ccccc4)c(Cl)ccc23)nc(OC)c1CC(F)F [Example 71, 6-chloro-N-[5-(2,2-difluoroethyl)-4,6-dimethoxy-pyrimidin-2-yl]-7-phenyl-1H-indole-3-sulfonamide]
1420 | COc1nc(NS(=O)(=O)c2c[nH]c3c(-c4ncccn4)cccc23)nc(OC)c1OCC(F)F [Example 72, N-[5-(2,2-difluoroethoxy)-4,6-dimethoxy-pyrimidin-2-yl]-7-(2-pyrimidyl)-1H-indole-3-sulfonamide]
37 | COc1nc(NS(=O)(=O)c2c[nH]c3c(-c4nccnc4C)c(Cl)ccc23)nc(OC)c1OCC(F)F [Example 73, 6-chloro-N-[5-(2,2-difluoroethoxy)-4,6-dimethoxy-pyrimidin-2-yl]-7-(3-methylpyrazin-2-yl)-1H-indole-3-sulfonamide]
19 | COc1nc(NS(=O)(=O)c2c[nH]c3c(-c4nccnc4C)c(Cl)ccc23)nc(OC)c1CC(F)F [Example 74, 6-chloro-N-[5-(2,2-difluoroethyl)-4,6-dimethoxy-pyrimidin-2-yl]-7-(3-methylpyrazin-2-yl)-1H-indole-3-sulfonamide]
135 | COc1nc(NS(=O)(=O)c2c[nH]c3c(-c4ncccn4)c(Cl)ccc23)nc(OC)c1Br [Example 75, N-(5-bromo-4,6-dimethoxy-pyrimidin-2-yl)-6-chloro-7-(2-pyrimidyl)-1H-indole-3-sulfonamide]
21 | COc1nc(NS(=O)(=O)c2c[nH]c3c(-c4ccncn4)c(Cl)ccc23)nc(OC)c1CC(F)F [Example 76, 6-chloro-N-[5-(2,2-difluoroethyl)-4,6-dimethoxy-pyrimidin-2-yl]-7-(4-pyrimidyl)-1H-indole-3-sulfonamide]
24 | COc1nc(NS(=O)(=O)c2c[nH]c3c(-c4ccncn4)c(Cl)ccc23)nc(OC)c1OCC(F)F [Example 77, 6-chloro-N-[5-(2,2-difluoroethoxy)-4,6-dimethoxy-pyrimidin-2-yl]-7-(4-pyrimidyl)-1H-indole-3-sulfonamide]
122 | COc1nc(NS(=O)(=O)c2c[nH]c3c(-c4ncccn4)c(Cl)ccc23)nc(OC)c1OCC#N [Example 78, 6-chloro-N-[5-(cyanomethoxy)-4,6-dimethoxy-pyrimidin-2-yl]-7-(2-pyrimidyl)-1H-indole-3-sulfonamide]
59 | COc1nc(NS(=O)(=O)c2c[nH]c3c(-c4ncccn4)c(Cl)ccc23)nc(OC)c1CCC#N [Example 79, 6-chloro-N-[5-(2-cyanoethyl)-4,6-dimethoxy-pyrimidin-2-yl]-7-(2-pyrimidyl)-1H-indole-3-sulfonamide]
260 | COc1nc(NS(=O)(=O)c2c[nH]c3c(-c4ncccn4)c(Cl)ccc23)ncc1OCCF [Example 80, 6-chloro-N-[5-(2-fluoroethoxy)-4-methoxy-pyrimidin-2-yl]-7-(2-pyrimidyl)-1H-indole-3-sulfonamide]
31 | COc1nc(NS(=O)(=O)c2c[nH]c3c(-c4nccnc4C)c(Cl)ccc23)nc(OC)c1OC(F)F [Example 81, 6-chloro-N-[5-(difluoromethoxy)-4,6-dimethoxy-pyrimidin-2-yl]-7-(3-methylpyrazin-2-yl)-1H-indole-3-sulfonamide]

Source: patent EP4562003B1, “NOVEL 7-SUBSTITUTED INDOLE SULFONAMIDE DERIVATIVES” (F. Hoffmann-La Roche AG, priority 2022, dated 2024)
